From US20170080026A1, “METHOD AND COMPOUND FOR OPENING POTASSIUM CHANNELS OF MAMMAL VASCULAR SMOOTH MUSCLES IN A REMOTE CONTROL MANNER” (Tovaristvo Z Obmezhenou Vidpovidalnistu "Nanomedtrast", priority 2015, published 2017)
Read-outs that look alike come from different tables or passages of the source.

System: outgoing potassium current (IK) in rat thoracic aorta SM cells
Experiment: Whole-cell outgoing K+ current (IK) recording in isolated thoracic aorta smooth muscle cells
Type: cell-based
Method: C, D show effects of potassium channel blockers (paxillin, 500 nM, and […] 10 mm) on the outgoing potassium current in smooth muscle cells of thoracic aorta not exposed to Au NPs (C) and exposed to Au NPs (D). Currents caused by single step excitations with an amplitude of 10 mV and 300 ms increments within −100 and +70 mV of outgoing potential at −60 mV.
Currents in each cell (except for leakage current) were converted into specific […], averaged and depicted versus membrane potential (mV). The data thus obtained were brought in consistency using the standard Boltzmann function with average parameters described herein. The resulting current-voltage characteristics (curves I-V) were obtained by measuring current at the end of an impulse. The data represent mean values of ±SEM (n=8).
For the purposes of the study, smooth muscle cells isolated from rat thoracic aorta using collagenase and pronase were taken. Rats were anesthetised with ketamine (37.5 mg/kg body weight, intraperitoneally) and xylazine (10 mg/kg body weight, intraperitoneally), and thoracic aorta about 1.0 . . . 1.5 cm long was removed and denuded to make it free from connective tissue. Aorta was cut into small pieces (1.5×1.5 mm) in the cooled low Ca^2+ ion content solution comprising (in mM): NaCl 140, KCl 6, MgCl2 3, D-glucose 10, HEPES 10 (pH 7.4) for 15 minutes. Vascular tissues were placed in fresh low Ca^2+ ion content solution comprising collagenase type IA 2 mg/mL (417 U/mg), pronase type E XXV 0.5 mg/ml, and bovine albumin serum 2 mg/ml. Then tissues were incubated for 30 minutes at a temperature of +37 ° C. After incubation, tissues were washed (for 2-3 minutes) twice in fresh low Ca^2+ ion content solution to remove enzymes. Cells were dispersed by stirring using a glass pipette and then placed in modified Krebs bicarbonate buffer. A certain number of muscle cells was maintained at a temperature of […] and remained functional for at least 4 hours. […]

Structure (SMILES) | effect on Au NPs-induced IK increment (SM cells exposed to Au NPs) | effect on Au NPs-induced IK increment | outgoing current
CC(C)(O)[C@H]1O[C@H]2CC[C@@]3(C)[C@@](O)(CC[C@H]4Cc5c([nH]c6ccccc56)[C@@]43C)C2=CC1=O [Paxillin, paxillin] | stopped Au NPs-induced IK increment |  | 
CC[N+](CC)(CC)CC [tetraethylammonium] |  | stopped Au NPs-induced IK increment | 3±1 pA/pF
